Data as given in DBAASP.
Values after ≈ are worked out from the molar mass of the structure shown.

Columns and labels:
Test in all cases: ≥ marks a high value that may be exact or a test limit, other limits are often not marked, values filed in µg/mL are converted to µM
[1] = tested on: Proteus vulgaris NCTC 4635
[2] = tested on: Pseudomonas aeruginosa ATCC 9027
[3] = tested on: Escherichia coli ATCC 8739
[4] = tested on: Staphylococcus aureus ATCC 6538
[5] = tested on: Bacillus subtilis ATCC 9372
[6] = tested on: Pseudomonas aeruginosa PAO1
[7] = tested on: Staphylococcus epidermidis C621
Escherichia coli BL21 = tested on: Escherichia coli BL21
[8] = tested on: Escherichia coli ATCC 25922
[9] = tested on: Pseudomonas aeruginosa PA330
Escherichia coli K-12 = tested on: Escherichia coli K-12
[10] = tested on: Pseudomonas aeruginosa PA214
[11] = tested on: Bacillus subtilis ATCC 6633
Escherichia coli DC2 = tested on: Escherichia coli DC2
Escherichia coli UB1005 = tested on: Escherichia coli UB1005
[12] = tested on: Enterococcus faecalis ATCC 29212
[13] = tested on: Corynebacterium xerosis C875
[14] = tested on: Pseudomonas aeruginosa ATCC 27853
[15] = tested on: Staphylococcus aureus ATCC 25923
[16] = tested on: Xanthomonas axonopodis pv. citri
[17] = tested on: Staphylococcus aureus ATCC 29313
Staphylococcus aureus 10 = tested on: Staphylococcus aureus 10
Pseudomonas aeruginosa = tested on: Pseudomonas aeruginosa
[18] = tested on: Candida albicans ATCC 2002
[19] = tested on: Pseudomonas aeruginosa CMCCB 1010
Klebsiella pneumoniae = tested on: Klebsiella pneumoniae
[20] = tested on: Enterobacter cloacae ATCC 13047
Escherichia coli 37 = tested on: Escherichia coli 37
[21] = tested on: Klebsiella pneumoniae ATCC 700603
Shigella dysenteriae = tested on: Shigella dysenteriae
[22] = tested on: Acinetobacter baumannii 7226/16
Escherichia coli ML-35p = tested on: Escherichia coli ML-35p
[23] = tested on: Staphylococcus aureus SG511
[24] = tested on: Staphylococcus aureus ATCC 33591
[25] = tested on: Pseudomonas aeruginosa 522/17
[26] = tested on: Klebsiella pneumoniae ESBL 344/17
[27] = tested on: Staphylococcus aureus 1399/17
[28] = tested on: Escherichia coli ESBL 521/17
[29] = tested on: Listeria monocytogenes KCCM 43155
[30] = tested on: Listeria monocytogenes KCTC 3710
[31] = tested on: Salmonella enterica subsp. enterica serovar Typhimurium ATCC 14028
[32] = tested on: Listeria monocytogenes KCCM 40307
[33] = tested on: Salmonella typhimurium CCARM 8009
[34] = tested on: Campylobacter jejuni KCTC 5327
[35] = tested on: Streptococcus suis KCTC 3557
[36] = tested on: Salmonella typhimurium CCARM 8013

CC[C@H](C)[C@H](NC(=O)[C@@H](NC(=O)[C@H](C)NC(=O)[C@H](Cc1ccccc1)NC(=O)[C@H](CC(C)C)NC(=O)CN)C(C)C)C(=O)N[C@@H](CCCCN)C(=O)N[C@@H](CCCCN)C(=O)N[C@H](C(=O)N[C@@H](C)C(=O)N[C@@H](CO)C(=O)N[C@H](C(=O)O)C(C)C)C(C)C [GLFAVIKKVASV]
MIC [1]: ≥ 416 µM
MIC [2]: 208 µM (≈ 256 µg/mL)
MIC [3]: ≥ 104 µM
MIC [4]: 208 µM (≈ 256 µg/mL)
MIC [5]: ≥ 52 µM

C[C@H](NC(=O)[C@H](C)NC(=O)[C@H](Cc1ccccc1)NC(=O)[C@H](C)NC(=O)[C@H](C)NC(=O)[C@H](Cc1c[nH]c2ccccc12)NC(=O)[C@H](C)NC(=O)[C@H](C)NC(=O)[C@H](Cc1ccccc1)NC(=O)[C@H](C)NC(=O)[C@H](C)NC(=O)[C@H](CCCCN)NC(=O)[C@H](CCCCN)NC(=O)[C@H](CCCCN)NC(=O)[C@H](CCCCN)NC(=O)[C@H](CCCCN)NC(=O)[C@@H](N)CCCCN)C(N)=O [KKKKKKAAFAAWAAFAA]
MIC [6]: 12.5 µM (≈ 22.9 µg/mL)
MIC [7]: 4 µM (≈ 7.34 µg/mL)
MIC (Escherichia coli BL21): 1.6 µM (≈ 2.94 µg/mL)
MIC [8]: 8 µM (≈ 14.7 µg/mL)
MIC [9]: 17.7 µM (≈ 32.4 µg/mL)
MIC (Escherichia coli K-12): 1.6 µM (≈ 2.94 µg/mL)
MIC [10]: 3.1 µM (≈ 5.69 µg/mL)
MIC [11]: 8 µM (≈ 14.7 µg/mL)
MIC (Escherichia coli DC2): 0.5 µM (≈ 0.918 µg/mL)
MIC (Escherichia coli UB1005): 1 µM (≈ 1.84 µg/mL)
MIC [12]: > 32 µM
MIC [13]: 0.5 µM (≈ 0.918 µg/mL)
MIC [14]: 16 µM (≈ 29.4 µg/mL)
MIC [15]: > 32 µM

CC(C)C[C@H](NC(=O)[C@H](C)NC(=O)[C@@H](NC(=O)[C@@H](N)CCCCN)C(C)C)C(=O)NCC(=O)N[C@H](C(=O)N[C@@H](C)C(=O)N[C@@H](CCC(N)=O)C(=O)N[C@@H](CC(N)=O)C(=O)N[C@@H](Cc1ccc(O)cc1)C(=O)N[C@@H](CC(C)C)C(=O)N[C@@H](CC(N)=O)C(=O)N1CCC[C@H]1C(=O)N[C@@H](CCC(N)=O)C(=O)N[C@@H](CCC(N)=O)C(=O)O)C(C)C [KVALGVAQNYLNPQQ]
MIC [16]: ≥ 156 µM
MIC [8]: > 156 µM
MIC [17]: ≥ 156 µM
MIC [14]: > 156 µM

CC[C@H](C)[C@H](NC(=O)[C@H](CC(C)C)NC(=O)[C@H](CC(C)C)NC(=O)[C@H](CCCCN)NC(=O)[C@H](C)NC(=O)[C@H](CC(C)C)NC(=O)[C@H](CCCCN)NC(=O)[C@@H](NC(=O)[C@H](C)NC(=O)CNC(=O)[C@H](CCSC)NC(=O)[C@H](CO)NC(=O)[C@@H](N)CC(=O)O)C(C)C)C(=O)N[C@@H](CC(=O)O)C(=O)N[C@@H](CCCCN)C(=O)N[C@@H](CCSC)C(=O)N[C@@H](CCCCN)C(=O)N[C@H]1CSSC[C@@H](C(=O)O)NC(=O)[C@H](C)NC(=O)[C@H](CCCCN)NC(=O)[C@H]([C@@H](C)O)NC(=O)[C@H](C(C)C)NC(=O)[C@H](CCC(=O)O)NC1=O [DSMGAVKLAKLLIDKMKCEVTKAC]
MIC (Staphylococcus aureus 10): ≥ 40 µM
MIC [8]: 10 µM (≈ 25.9 µg/mL)
MIC (Pseudomonas aeruginosa): 23 µM (≈ 59.7 µg/mL)
MIC [18]: ≥ 60 µM
MIC [19]: 17 µM (≈ 44.1 µg/mL)
MIC (Klebsiella pneumoniae): 30 µM (≈ 77.8 µg/mL)
MIC [20]: ≥ 40 µM
MIC (Escherichia coli 37): ≥ 60 µM
MIC [12]: 60 µM (≈ 156 µg/mL)
MIC [21]: 15 µM (≈ 38.9 µg/mL)
MIC [14]: 23 µM (≈ 59.7 µg/mL)
MIC (Shigella dysenteriae): ≥ 40 µM
MIC [15]: 17 µM (≈ 44.1 µg/mL)

CC[C@H](C)[C@H](NC(=O)[C@H](CCCN=C(N)N)NC(=O)[C@@H](NC(=O)[C@@H]1CCCN1C(=O)[C@@H]1CCCN1C(=O)[C@H](CCCN=C(N)N)NC(=O)[C@H](CCCN=C(N)N)NC(=O)[C@H](Cc1ccccc1)NC(=O)[C@@H]1CCCN1C(=O)[C@H](CC(C)C)NC(=O)[C@H](CCCN=C(N)N)NC(=O)[C@H](Cc1ccccc1)NC(=O)[C@@H](N)CCCN=C(N)N)[C@@H](C)CC)C(=O)N[C@@H](Cc1cnc[nH]1)C(=O)N1CCC[C@H]1C(=O)N1CCC[C@H]1C(=O)N1CCC[C@H]1C(=O)N[C@@H](Cc1ccccc1)C(=O)N[C@@H](Cc1ccc(O)cc1)C(=O)N1CCC[C@H]1C(=O)N1CCC[C@H]1C(=O)N[C@@H](Cc1ccccc1)C(=O)N[C@@H](CCCN=C(N)N)C(=O)N[C@@H](CCCN=C(N)N)C(=O)N[C@@H](Cc1ccccc1)C(=O)N[C@@H](CC(C)C)C(=O)O [RFRLPFRRPPIRIHPPPFYPPFRRFL]
MIC [22]: 5.66 µM (≈ 19.1 µg/mL)
MIC (Escherichia coli ML-35p): 2 µM (≈ 6.75 µg/mL)
MIC [23]: 0.5 µM (≈ 1.69 µg/mL)
MIC [24]: ≥ 32 µM
MIC [25]: ≥ 32 µM
MIC [26]: 5.66 µM (≈ 19.1 µg/mL)
MIC [27]: 11.3 µM (≈ 38.2 µg/mL)
MIC [28]: 4 µM (≈ 13.5 µg/mL)

CC(C)C[C@H](NC(=O)[C@H](CO)NC(=O)[C@H](CC(C)C)NC(=O)[C@H](CC(C)C)NC(=O)[C@H](CO)NC(=O)CNC(=O)[C@H](Cc1ccccc1)NC(=O)[C@@H](N)Cc1ccccc1)C(=O)NCC(=O)N[C@@H](CO)C(=O)N[C@@H](CCCCN)C(=O)N[C@@H](CC(C)C)C(=O)N[C@@H](CC(C)C)C(=O)N1CCC[C@H]1C(=O)N[C@@H](CO)C(=O)N[C@H](C(=O)N[C@@H](Cc1ccccc1)C(=O)N[C@@H](CCCCN)C(=O)N[C@@H](CC(C)C)C(=O)N[C@@H](Cc1ccccc1)C(=O)N[C@@H](CCC(N)=O)C(=O)N[C@@H](CCCN=C(N)N)C(=O)N[C@@H](CCCCN)C(=O)N[C@@H](CCCCN)C(=O)N[C@@H](CCC(=O)O)C(N)=O)C(C)C [FFGSLLSLGSKLLPSVFKLFQRKKE]
MIC [29]: 2 µM (≈ 5.74 µg/mL)
MIC [30]: 2 µM (≈ 5.74 µg/mL)
MIC [31]: 4 µM (≈ 11.5 µg/mL)
MIC [32]: 2 µM (≈ 5.74 µg/mL)
MIC [33]: 4 µM (≈ 11.5 µg/mL)
MIC [34]: 2 µM (≈ 5.74 µg/mL)
MIC [35]: 2 µM (≈ 5.74 µg/mL)
MIC [36]: 4 µM (≈ 11.5 µg/mL)
